Measurements from US11814392B2, “Chromenopyridine-based compounds and methods of making and use thereof” (Rosalind Franklin University of Medicine and Science, priority 2020, dated 2023).

Key:
BT-549 = test: NCI 60 five-dose screening, BT-549
Experimental: (§1) The National Cancer Institute's Developmental Therapeutic preclinical 60 human cancer cell lines were used for an in vitro screen. […] The one-dose and five-dose experiments were conducted according to standard NCI protocols.
(§2) The human tumor cell lines of the cancer screening panel are grown in RPMI 1640 medium containing 5% fetal bovine serum and 2 mM L-glutamine. For a typical screening experiment, cells are inoculated into 96 well microtiter plates in 100 μL at plating densities ranging from 5,000 to 40,000 cells/well depending on the doubling time of individual cell lines. After cell inoculation, the microtiter plates are incubated at 37° C., 5% CO2, 95% air and 100% relative humidity for 24 h prior to addition of experimental drugs.
(§3) After 24 h, two plates of each cell line are fixed in situ with TCA, to represent a measurement of the cell population for each cell line at the time of drug addition (Tz). […]
(§4) Following drug addition, the plates are incubated for an additional 48 h at 37° C., 5% CO2, 95% air, and 100% relative humidity. […] Bound stain is subsequently solubilized with 10 mM trizma base, and the absorbance is read on an automated plate reader at a wavelength of 515 nm. […] Using the seven absorbance measurements [time zero, (Tz), control growth, (C), and test growth in the presence of drug at the five concentration levels (Ti)], the percentage growth is calculated at each of the drug concentrations levels. Percentage growth inhibition is calculated as: [(Ti−Tz)/(C−Tz)]×100 for concentrations for which Ti>/=Tz [(Ti−Tz)/Tz]×100 for concentrations for which Ti<Tz.
(§5) Three dose response parameters are calculated for each experimental agent. […] The drug concentration resulting in total growth inhibition (TGI) is calculated from Ti=Tz. […] Values are calculated for each of these three parameters if the level of activity is reached; however, if the effect is not reached or is exceeded, the value for that parameter is expressed as greater or less than the maximum or minimum concentration tested.

SF-539 = test: NCI 60 five-dose screening, SF-539
Experimental: as §1, §2, §3, §4, §5

NCI-H460 = test: NCI 60 five-dose screening, NCI-H460
Experimental: as §1, §2, §3, §4, §5

DU-145 = test: NCI 60 five-dose screening, DU-145
Experimental: as §1, §2, §3, §4, §5

SK-MEL-28 = test: NCI 60 five-dose screening, SK-MEL-28
Experimental: as §1, §2, §3, §4, §5

PMCT = target: T1, PMCT (Homo sapiens, UniProt Q86YT5); test: PMCT inhibition, citrate transport assay of whole HEK293T cells; format: cell-based
T1 construct: expressed in transfected cells; host or cells: HEK293T cells transfected with pcDNA3.1(+)-SLC13A5 using PEI
T1 sequence (Q86YT5 whole entry): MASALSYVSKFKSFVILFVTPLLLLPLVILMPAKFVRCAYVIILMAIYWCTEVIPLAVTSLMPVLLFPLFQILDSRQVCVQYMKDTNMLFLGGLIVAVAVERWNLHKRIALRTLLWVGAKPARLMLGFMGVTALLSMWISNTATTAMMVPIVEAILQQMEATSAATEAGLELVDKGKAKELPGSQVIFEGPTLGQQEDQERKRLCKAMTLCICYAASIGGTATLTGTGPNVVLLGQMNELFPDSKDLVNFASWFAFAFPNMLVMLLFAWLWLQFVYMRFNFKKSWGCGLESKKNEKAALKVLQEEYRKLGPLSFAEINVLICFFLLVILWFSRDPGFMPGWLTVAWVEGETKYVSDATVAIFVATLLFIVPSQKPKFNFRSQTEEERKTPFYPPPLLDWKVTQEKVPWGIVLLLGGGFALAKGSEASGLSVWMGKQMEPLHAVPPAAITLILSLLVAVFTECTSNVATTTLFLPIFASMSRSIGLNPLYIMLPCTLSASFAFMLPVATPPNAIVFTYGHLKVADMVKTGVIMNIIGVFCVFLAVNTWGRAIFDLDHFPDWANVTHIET

ACHN = test: NCI 60 five-dose screening, ACHN; details: 48 h
Experimental: (§6) The one-dose and five-dose experiments were conducted according to standard NCI protocols.
as §2
(§7) After 24 h, two plates of each cell line are fixed in situ with TCA, to represent a measurement of the cell population for each cell line at the time of drug addition (Tz). Experimental drugs are solubilized in dimethyl sulfoxide at 400-fold the desired final maximum test concentration and stored frozen prior to use. […]
as §4, §5

786.0 = test: NCI 60 five-dose screening, 786.0
Experimental: as §6, §2, §7, §4, §5

NCI/ADR-RES = test: NCI 60 five-dose screening, NCI/ADR-RES; format: cell-based, human; details: NCI/ADR-RES (Ovarian Cancer), 48 h
OVCAR-3 = test: NCI 60 five-dose screening, OVCAR-3; format: cell-based, human
IGROV1 = test: NCI 60 five-dose screening, IGROV1
Experimental: as §1, §2, §3, §4, §5

SK-MEL-2 = test: NCI 60 five-dose screening, SK-MEL-2
Experimental: as §1, §2, §3, §4, §5

[1] = test system: 60 human cancer cell lines; test: NCI 60 cell line assay, panel summary; format: cell-based; details: for GI50: Homo sapiens, 60 cell
MOLT-4 = test: NCI 60 five-dose screening, MOLT-4
Experimental: as §1, §2, §3, §4, §5

OVCAR-8 = test: NCI 60 five-dose screening, OVCAR-8
Experimental: as §6, §2, §7, §4, §5

HOP-92 = test: NCI 60 five-dose screening, HOP-92
Experimental: as §6, §2, §7, §4, §5

RXF 393 = test: NCI 60 five-dose screening, RXF 393
Experimental: as §6, §2
After 24 h, two plates of each cell line are fixed in situ with TCA, to represent a measurement of the cell population for each cell line at the time of drug addition (Tz). Experimental drugs are solubilized in dimethyl sulfoxide at 400-fold the desired final maximum test concentration and stored frozen prior to use. At the time of drug addition, an aliquot of frozen concentrate is thawed and diluted to twice the desired final maximum test concentration with complete medium containing 50 μg/ml gentamicin. Additional four, 10-fold or ½ log serial dilutions are made to provide a total of five drug concentrations plus control. Aliquots of 100 μl of these different drug dilutions are added to the appropriate microtiter wells already containing 100 μl of medium, resulting in the required final drug concentrations.
Following drug addition, the plates are incubated for an additional 48 h at 37° C., 5% CO2, 95% air, and 100% relative humidity. For adherent cells, the assay is terminated by the addition of cold TCA. Cells are fixed in situ by the gentle addition of 50 μl of cold 50% (w/v) TCA (final concentration, 10% TCA) and incubated for 60 minutes at 4° C. […] Bound stain is subsequently solubilized with 10 mM trizma base, and the absorbance is read on an automated plate reader at a wavelength of 515 nm. […] Using the seven absorbance measurements [time zero, (Tz), control growth, (C), and test growth in the presence of drug at the five concentration levels (Ti)], the percentage growth is calculated at each of the drug concentrations levels. Percentage growth inhibition is calculated as: [(Ti−Tz)/(C−Tz)]×100 for concentrations for which Ti>/=Tz [(Ti−Tz)/Tz]×100 for concentrations for which Ti<Tz.
as §5

SNB-19 = test: NCI 60 five-dose screening, SNB-19
Experimental: as §1, §2, §3, §4, §5

SNB-75 = test: NCI 60 five-dose screening, SNB-75
Experimental: as §1, §2, §3, §4, §5

CCRF-CEM = test: NCI 60 five-dose screening, CCRF-CEM; details: Homo sapiens, 48 h
Experimental: as §1
The human tumor cell lines of the cancer screening panel are grown in RPMI 1640 medium containing 5% fetal bovine serum and 2 mM L-glutamine. For a typical screening experiment, cells are inoculated into 96 well microtiter plates in 100 μL at plating densities ranging from 5,000 to 40,000 cells/well depending on the doubling time of individual cell lines. […]
as §4
Three dose response parameters are calculated for each experimental agent. […]

OVCAR-5 = test: NCI 60 five-dose screening, OVCAR-5
Experimental: as §1, §2, §3, §4, §5

A549/ATCC = test: NCI 60 five-dose screening, A549/ATCC; format: cell-based, human; details: A549/ATCC (Non-small cell Lung), 48 h
COLO 205 = test: NCI 60 five-dose screening, COLO 205
Experimental: as §1, §2, §3, §4, §5

UO-31 = test: NCI 60 five-dose screening, UO-31
Experimental: as §1, §2, §3, §4, §5

[2] = RXF 393 (Renal Cancer), five-dose, 48 h

COc1ccc(SC2c3cc(OC)c(OC)cc3Oc3nc(N)c(C#N)c(N)c32)cc1 (centres unmarked) [Compound 1, 2,4-diamino-7,8-dimethoxy-5-((4-methoxyphenyl)thio)-5H-chromeno[2,3-b]pyridine-3-carbonitrile]
TGI (BT-549; BT-549 (Breast Cancer), five-dose, 48 h): 2190 nM | GI50 (BT-549; Homo sapiens, BT-549, 48 h): 1020 nM | CC50 (BT-549; Homo sapiens, BT-549, 48 h, read-out: LC50): 4720 nM | GI50 (SF-539; Homo sapiens, SF-539, 48 h): 1380 nM | CC50 (SF-539; Homo sapiens, SF-539, 48 h, read-out: LC50): 5200 nM | TGI (SF-539; SF-539 (CNS Cancer), five-dose, 48 h): 2680 nM | GI50 (NCI-H460; Homo sapiens, NCI-H460, 48 h): 1660 nM | CC50 (NCI-H460; Homo sapiens, NCI-H460, 48 h, read-out: LC50): > 100000 nM | TGI (NCI-H460; NCI-H460 (Non-small cell Lung), five-dose, 48 h): 4380 nM | TGI (DU-145; DU-145 (Prostate Cancer), five-dose, 48 h): 3110 nM | GI50 (DU-145; Homo sapiens, DU-145, 48 h): 1730 nM | CC50 (DU-145; Homo sapiens, DU-145, 48 h, read-out: LC50): 5590 nM | GI50 (SK-MEL-28; Homo sapiens, SK-MEL-28, 48 h): 1470 nM | CC50 (SK-MEL-28; Homo sapiens, SK-MEL-28, 48 h, read-out: LC50): 5780 nM | TGI (SK-MEL-28; SK-MEL-28 (Melanoma), five-dose, 48 h): 2910 nM | IC50 (PMCT; HEK293T cells): 9800 nM | dose-dependence of PMCT inhibition (PMCT; HEK293T cells, even at moderate concentrations (FIG. 1)): dose-dependent inhibition | inhibition at 5 µM (PMCT; HEK-293T, read-out: PMCT Inhibition, Inhibitor Concentration 5 μM, HEK293T cells): 50.1% | inhibition at 20 µM (PMCT; HEK-293T, read-out: PMCT Inhibition, Inhibitor Concentration 20 μM, HEK293T cells): 75.6% | inhibition at 40 µM (PMCT; HEK-293T, read-out: PMCT Inhibition, Inhibitor Concentration 40 μM, HEK293T cells): 50.2% | inhibition at 200 µM (PMCT; HEK-293T, read-out: PMCT Inhibition, Inhibitor Concentration 200 μM, HEK293T cells): 32.1% | inhibition at 1000 µM (PMCT; HEK-293T, read-out: PMCT Inhibition, Inhibitor Concentration 1000 μM, HEK293T cells): 62.8% | TGI (ACHN; ACHN (Renal Cancer), five-dose): 3120 nM | GI50 (ACHN; Homo sapiens, ACHN): 1740 nM | CC50 (ACHN; Homo sapiens, ACHN, read-out: LC50): 5580 nM | TGI (786.0; 786.0 (Renal Cancer), five-dose, 48 h): 1730 nM | GI50 (786.0; Homo sapiens, 786-0, 48 h): 490 nM | CC50 (786.0; Homo sapiens, 786-0, 48 h, read-out: LC50): 4200 nM | GI50 (NCI/ADR-RES; Homo sapiens): 1790 nM | TGI (NCI/ADR-RES): 3690 nM | CC50 (OVCAR-3; Homo sapiens, OVCAR-3, 48 h, read-out: LC50): 5030 nM | GI50 (OVCAR-3; Homo sapiens, OVCAR-3 (Ovarian Cancer), five-dose, 48 h): 1060 nM | TGI (OVCAR-3; OVCAR-3 (Ovarian Cancer), five-dose, 48 h): 2310 nM | GI50 (IGROV1; Homo sapiens, IGROV-1, 48 h): 760 nM | CC50 (IGROV1; Homo sapiens, IGROV-1, 48 h, read-out: LC50): 6420 nM | TGI (IGROV1; IGROV1 (Ovarian Cancer), five-dose, 48 h): 2370 nM | GI50 (SK-MEL-2; Homo sapiens, SK-MEL-2, 48 h): 1370 nM | CC50 (SK-MEL-2; Homo sapiens, SK-MEL-2, 48 h, read-out: LC50): 5760 nM | TGI (SK-MEL-2; SK-MEL-2 (Melanoma), five-dose, 48 h): 2800 nM | GI50 ([1]; at least one studied cell line of each of leukemia, colon cancer, CNS cancer, melanoma, ovarian cancer, renal cancer, and breast cancer): < 1000 nM | GI50 ([1]; every leukemia cell line studied): < 500 nM | anti-proliferative activity ([1]; nine major cancer cell lines, initial single dose and five dose screening (FIG. 2, FIG. 3)): anti-proliferative activity | GI50 (MOLT-4; Homo sapiens, MOLT-4, 48 h): 310 nM | CC50 (MOLT-4; Homo sapiens, MOLT-4, 48 h, read-out: LC50): > 100000 nM | TGI (MOLT-4; MOLT-4 (Leukemia), five-dose, 48 h): 1600 nM | GI50 (OVCAR-8; Homo sapiens, OVCAR-8, 48 h): 1690 nM | CC50 (OVCAR-8; Homo sapiens, OVCAR-8, 48 h, read-out: LC50): 5980 nM | TGI (OVCAR-8; OVCAR-8 (Ovarian Cancer), five-dose, 48 h): 3180 nM | TGI (HOP-92; HOP-92 (Non-small cell Lung), five-dose, 48 h): 2720 nM | GI50 (HOP-92; Homo sapiens, HOP-92, 48 h): 1240 nM | CC50 (HOP-92; Homo sapiens, HOP-92, 48 h, read-out: LC50): 5990 nM | GI50 (RXF 393; Homo sapiens, RXF 393, 48 h, RXF 393 (Renal Cancer), five-dose, 48 h): 450 nM | CC50 (RXF 393; Homo sapiens, RXF 393, 48 h, read-out: LC50): 4520 nM | GI50 (RXF 393; [2]): 740 nM | TGI (RXF 393; [2]): 2010 nM | GI50 (SNB-19; Homo sapiens, SNB-19, 48 h): 1320 nM | CC50 (SNB-19; Homo sapiens, SNB-19, 48 h, read-out: LC50): 5300 nM | TGI (SNB-19; SNB-19 (CNS Cancer), five-dose, 48 h): 2640 nM | GI50 (SNB-75; Homo sapiens, SNB-75, 48 h): 1310 nM | CC50 (SNB-75; Homo sapiens, SNB-75, 48 h, read-out: LC50): 5240 nM | TGI (SNB-75; SNB-75 (CNS Cancer), five-dose, 48 h): 2620 nM | GI50 (CCRF-CEM): 310 nM | CC50 (CCRF-CEM; read-out: LC50): > 100000 nM | GI50 (OVCAR-5; Homo sapiens, OVCAR-5, 48 h): 1750 nM | CC50 (OVCAR-5; Homo sapiens, OVCAR-5, 48 h, read-out: LC50): 6660 nM | TGI (OVCAR-5; OVCAR-5 (Ovarian Cancer), five-dose, 48 h): 3390 nM | TGI (A549/ATCC): 3840 nM | GI50 (A549/ATCC; Homo sapiens): 2010 nM | TGI (COLO 205; COLO 205 (Colon Cancer), five-dose, 48 h): 2650 nM | GI50 (COLO 205; Homo sapiens, COLO 205, 48 h): 1290 nM | CC50 (COLO 205; Homo sapiens, COLO 205, 48 h, read-out: LC50): 5430 nM | GI50 (UO-31; Homo sapiens, UO-31, 48 h): 1340 nM | CC50 (UO-31; Homo sapiens, UO-31, 48 h, read-out: LC50): 5110 nM | TGI (UO-31; UO-31 (Renal Cancer), five-dose, 48 h): 2610 nM
